Reference: patent US7166597B2, “Fused pyrazole derivatives being protein kinase inhibitors” (Glaxo Group Limited, priority 2000, dated 2007)
Like-named read-outs stand apart in the source and are kept apart here.

Columns and labels:
p38 kinase = biological target: T1, p38 kinase (Homo sapiens, UniProt Q16539); test: p38 Kinase Assay; type: biochemical
T1 construct: GST (N); made in house; host or cells: E. coli
Method: The peptide substrate used in the p38 assay was biotin-IPTSPITTTYFFFRRR-amide. The p38 and MEK6 proteins were purified to homogeneity from E. coli expression systems. The fusion proteins were tagged at the N-terminus with Glutathione-S-Transferase (GST). The maximum activation was achieved by incubating 20 uL of a reaction mixture of 30 nM MEK6 protein and 120 nM p38 protein in the presence of 1.5 uM peptide and 10 mM Mg (CH3CO2)2 in 100 mM HEPES7 pH 7.5, added to 15 uL of a mixture of 1.5 uM ATP with 0.08 uCi [g-^33P]ATP, with or without 15 uL of inhibitor in 6% DMSO. The controls were reactions in the presence (negative controls) or absence (positive controls) of 50 mM EDTA. Reactions were allowed to proceed for 60 min at room temperature and quenched with addition of 50 uL of 250 mM EDTA and mixed with 150 uL of Streptavidin SPA beads (Amersham) to 0.5 mg/reaction. The Dynatech Microfluor white U-bottom plates were sealed and the beads were allowed to settle overnight. The plates were counted in a Packard TopCount for 60 seconds. IC50 values were obtained by fitting raw data to % I=100*(1−(I−C2)/(C1−C2)), where I was […], C1 was positive control, and C2 was negative control.

[1] = biological target: T2, JNK3 kinase (Jnk-3alpha-2) (Homo sapiens, UniProt P53779); test: JNK3 Kinase Assay; type: biochemical
T2 construct: Jnk-3alpha-2 (as a truncated construct, residues 39 to 224) was expressed in E. coli as a GST fusion protein; Following purification the GST portion was removed by thrombin cleavage; fused on or other part: An N-terminal GST tag was used for expression and removed by thrombin cleavage before the assay
T2 sequence (P53779 39-402 limits assumed): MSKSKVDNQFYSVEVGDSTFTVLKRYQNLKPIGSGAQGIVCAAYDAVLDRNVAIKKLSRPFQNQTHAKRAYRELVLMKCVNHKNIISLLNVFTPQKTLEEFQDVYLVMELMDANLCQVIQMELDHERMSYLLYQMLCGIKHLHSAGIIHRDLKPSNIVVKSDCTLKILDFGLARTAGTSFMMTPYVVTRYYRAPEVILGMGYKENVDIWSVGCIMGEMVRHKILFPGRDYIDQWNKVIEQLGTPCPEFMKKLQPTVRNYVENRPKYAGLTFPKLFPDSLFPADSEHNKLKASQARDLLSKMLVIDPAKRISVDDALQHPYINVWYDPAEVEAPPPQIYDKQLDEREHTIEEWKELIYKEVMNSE
Method: JNK3 Kinase Assay Jnk-3alpha-2 (as a truncated construct, residues 39 to 224) was expressed in E. coli as a GST fusion protein. Following purification the GST portion was removed by thrombin cleavage. The enzyme was stored at −80° C. Substrate c-Jun was expressed as a GST fusion protein including a signal peptide (biotinylation site) in E. coli. Following purification the substrate was biotinylated on a specific lysine in the signal peptide using biotin ligase. Prior to assay Jnk-3 was pre-activated by incubation with MgATP. The enzyme (10 nM) was screened in 40 mM HEPES (pH 7.4), 150 mM NaCl, 20 mM glycerophosphate, 1 mM DTT, 0.2 mM vanadate, 200 nM biotin-c-Jun, 5 mM MgCl2 and 10 uM ATP. Inhibitors were added over a conc range of from 0 to 10 uM in DMSO (fc 3%). The reaction was stopped by the addition of 25 mM EDTA. Phospho-c-Jun was detected using homogeneous time resolved fluorescence (HTRF) with a Eu-labelled antiphosphoserine (Serine 73) and streptavidin APC.

[2] = Table 9, p38 assays using Assay II, read-out: p38 IC50
[3] = Table 8, compounds wherein Z is N, read-out: p38 kinase (inhibition of p38 kinase, IC50)

T1 sequence (Q16539 whole entry): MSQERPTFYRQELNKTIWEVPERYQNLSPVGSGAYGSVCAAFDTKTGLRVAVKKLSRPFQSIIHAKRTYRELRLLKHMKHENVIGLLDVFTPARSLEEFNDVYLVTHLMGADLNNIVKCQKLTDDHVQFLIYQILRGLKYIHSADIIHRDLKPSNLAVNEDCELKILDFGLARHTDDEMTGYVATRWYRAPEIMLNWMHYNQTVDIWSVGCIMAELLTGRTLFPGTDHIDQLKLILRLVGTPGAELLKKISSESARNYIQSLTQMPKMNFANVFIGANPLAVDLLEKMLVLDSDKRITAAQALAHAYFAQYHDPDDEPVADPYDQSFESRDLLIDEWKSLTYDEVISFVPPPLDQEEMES

Row | IC50 (p38 kinase; [2]) | IC50 ([1]; Table 9, read-out: JNK3 IC50) | SMILES | other results
1 | 1000 to 10000 nM | – | FC(F)(F)c1ccc(-c2nn3cc(C(F)(F)F)ccc3c2-c2ccnc(NCCN3CCOCC3)n2)cc1 [Example 119, N-(2-morpholin-4-ylethyl)-N-(4-{6-(trifluoromethyl)-2-[4-(trifluoromethyl)phenyl]pyrazolo[1,5-a]pyridin-3-yl}pyrimidin-2-yl)amine] | –
2 | 1000 to 10000 nM | 1000 to 10000 nM | FC(F)(F)c1ccc(-c2nn3cc(C(F)(F)F)ccc3c2-c2ccnc(NCCCN3CCCCC3)n2)cc1 [Example 112, N-(3-piperidin-1-ylpropyl)-N-(4-{6-(trifluoromethyl)-2-[4-(trifluoromethyl)phenyl]pyrazolo[1,5-a]pyridin-3-yl}pyrimidin-2-yl)amine] | –
3 | 100 to 1000 nM | 1000 to 10000 nM | Fc1ccc(-c2nn3cc(C(F)(F)F)ccc3c2-c2ccnc(NCCN3CCCCCC3)n2)cc1Cl [Example 116, N-(2-azepan-1-ylethyl)-N-{4-[2-(3-chloro-4-fluorophenyl)-6-(trifluoromethyl)pyrazolo[1,5-a]pyridin-3-yl]pyrimidin-2-yl}amine] | –
4 | 1000 to 10000 nM | – | CCN(CC)CCNc1nccc(-c2c(-c3ccc(C(F)(F)F)cc3)nn3cc(C(F)(F)F)ccc23)n1 [Example 95, N-[2-(diethylamino)ethyl]-N-(4-{6-(trifluoromethyl)-2-[4-(trifluoromethyl)phenyl]pyrazolo[1,5-a]pyridin-3-yl}pyrimidin-2-yl)amine] | –
5 | 1000 to 10000 nM | – | FC(F)(F)c1ccc(-c2nn3cc(C(F)(F)F)ccc3c2-c2ccnc(NCCCN3CCOCC3)n2)cc1 [Example 121, N-(3-morpholin-4-ylpropyl)-N-(4-{6-(trifluoromethyl)-2-[4-(trifluoromethyl)phenyl]pyrazolo[1,5-a]pyridin-3-yl}pyrimidin-2-yl)amine] | –
6 | 100 to 1000 nM | 1000 to 10000 nM | Fc1ccc(-c2nn3cc(C(F)(F)F)ccc3c2-c2ccnc(NCCN3CCCC3)n2)cc1Cl [Example 104, N-{4-[2-(3-chloro-4-fluorophenyl)-6-(trifluoromethyl)pyrazolo-[1,5-a]pyridin-3-yl]pyrimidin-2-yl}-N-(2-pyrrolidin-1-ylethyl)amine] | –
7 | 1000 to 10000 nM | – | CCCN(CCC)CCNc1nccc(-c2c(-c3ccc(C(F)(F)F)cc3)nn3cc(C(F)(F)F)ccc23)n1 [Example 97, N-[2-(dipropylamino)ethyl]-N-(4-{6-(trifluoromethyl)-2-[4-(trifluoromethyl)phenyl]pyrazolo[1,5-a]pyridin-3-yl}pyrimidin-2-yl)amine] | –
8 | 100 to 1000 nM | 1000 to 10000 nM | FC(F)(F)c1ccc2c(-c3ccnc(NCCN4CCCCC4)n3)c(-c3cccc(Cl)c3)nn2c1 [Example 110, N-{4-[2-(3-chlorophenyl)-6-(trifluoromethyl)pyrazolo[1,5-a]pyridin-3-yl]pyrimidin-2-yl}-N-(2-piperidin-1-ylethyl)amine] | –
9 | 1000 to 10000 nM | – | FC(F)(F)c1ccc(-c2nn3cc(C(F)(F)F)ccc3c2-c2ccnc(NCCN3CCCC3)n2)cc1 [Example 103, N-(2-pyrrolidin-1-ylethyl)-N-(4-{6-(trifluoromethyl)-2-[4-(trifluoromethyl)phenyl]pyrazolo[1,5-a]pyridin-3-yl}pyrimidin-2-yl)amine] | –
10 | 1000 to 10000 nM | – | FC(F)(F)c1ccc(-c2nn3cc(C(F)(F)F)ccc3c2-c2ccnc(NCCN3CCCCC3)n2)cc1 [Example 108, N-(2-piperidin-1-ylethyl)-N-(4-{6-(trifluoromethyl)-2-[4-(trifluoromethyl)phenyl]pyrazolo[1,5-a]pyridin-3-yl}pyrimidin-2-yl)amine] | –

Second part, the molecule before the results:

Row | SMILES | IC50 (p38 kinase; [2]) | IC50 ([1]; Table 9, read-out: JNK3 IC50) | other results
11 | CN1CCN(CCCNc2nccc(-c3c(-c4ccc(F)c(Cl)c4)nn4cc(C(F)(F)F)ccc34)n2)CC1 [Example 125, N-{4-[2-(3-chloro-4-fluorophenyl)-6-(trifluoromethyl)pyrazolo-[1,5-a]pyridin-3-yl]pyrimidin-2-yl}-N-[3-(4-methylpiperazin-1-yl)propyl]amine] | 10 to 100 nM | 100 to 1000 nM | –
12 | NC(=O)c1ccc2c(-c3ccnc(NCCCO)n3)c(-c3ccc(F)cc3)nn2c1 [Example 76, 2-(4-Fluorophenyl)-3-(4-(2-(3-hydroxypropyl)amino)pyrimidinyl)-6-pyrazolo-[1,5-a]pyridinylcarboxamide] | – | – | IC50 (p38 kinase; [3]): < 500 nM
13 | CCCN(CCC)CCNc1nccc(-c2c(-c3ccc(F)c(Cl)c3)nn3cc(C(F)(F)F)ccc23)n1 [Example 98, N-{4-[2-(3-chloro-4-fluorophenyl)-6-(trifluoromethyl)pyrazolo-[1,5-a]pyridin-3-yl]pyrimidin-2-yl}-N-[2-(dipropylamino)ethyl]amine] | 100 to 1000 nM | 1000 to 10000 nM | –
14 | FC(F)(F)c1ccc2c(-c3ccnc(NCCCCN4CCCC4)n3)c(-c3cccc(Cl)c3)nn2c1 [Example 106, N-{4-[2-(3-chlorophenyl)-6-(trifluoromethyl)pyrazolo[1,5-a]pyridin-3-yl]pyrimidin-2-yl}-N-(4-pyrrolidin-1-ylbutyl)amine] | 10 to 100 nM | 100 to 1000 nM | –
15 | CCCN1CCN(CCNc2nccc(-c3c(-c4cccc(Cl)c4)nn4cc(C(F)(F)F)ccc34)n2)CC1 [Example 129, N-{4-[2-(3-chlorophenyl)-6-(trifluoromethyl)pyrazolo[1,5-a]pyridin-3-yl]pyrimidin-2-yl}-N-[2-(4-propylpiperazin-1-yl)ethyl]amine] | 10 to 100 nM | 100 to 1000 nM | –
16 | CC(C)N(CCNc1nccc(-c2c(-c3ccc(F)c(Cl)c3)nn3cc(C(F)(F)F)ccc23)n1)C(C)C [Example 100, N-{4-[2-(3-chloro-4-fluorophenyl)-6-(trifluoromethyl)pyrazolo-[1,5-a]pyridin-3-yl]pyrimidin-2-yl}-N-[2-(diisopropylamino)ethyl]amine] | 100 to 1000 nM | 1000 to 10000 nM | –
17 | Fc1ccc(-c2nn3cc(C(F)(F)F)ccc3c2-c2ccnc(Oc3ccccc3)n2)cc1 [Example 84, 2-(4-Fluorophenyl)-3-(2-phenoxypyrimidin-4-yl)-6-(trifluoromethyl)pyrazolo[1,5-a]pyridine] | – | – | IC50 ([1]; Table 8, read-out: JNK3 kinase (inhibition of JNK3 kinase, IC50)): < 500 nM; IC50 (p38 kinase; [3]): < 500 nM
18 | CN(C)CCCNc1nccc(-c2c(-c3ccc(F)c(Cl)c3)nn3cc(C(F)(F)F)ccc23)n1 [Example 89, N-[4-{2-[3-chloro-4-fluorophenyl]-6-(trifluoromethyl)pyrazolo-[1,5-a]pyridin-3-yl}pyrimidin-2-yl]-N-[3-(dimethylamino)propyl]amine] | 10 to 100 nM | 1000 to 10000 nM | –
19 | CN(C)CCCNc1nccc(-c2c(-c3cccc(Cl)c3)nn3cc(C(F)(F)F)ccc23)n1 [Example 90, N-{4-[2-(3-chlorophenyl)-6-(trifluoromethyl)pyrazolo[1,5-a]pyridin-3-yl]pyrimidin-2-yl}-N-[3-(dimethylamino)propyl]amine] | 10 to 100 nM | 1000 to 10000 nM | –
20 | OCc1ccn2nc(-c3ccc(F)cc3)c(-c3ccncc3)c2c1 [Example 6, 2-(4-Fluorophenyl)-5-hydroxymethyl-3-(4-pyridinyl)pyrazolo[1,5-a]pyridine] | – | – | IC50 (p38 kinase; Table 7, compounds wherein Z is CH, read-out: P38 kinase (inhibition of p38 kinase, IC50)): < 500 nM
21 | CN1CCN(CCCNc2nccc(-c3c(-c4ccc(F)cc4)nn4cc(C(N)=O)ccc34)n2)CC1 [Example 79, 2-(4-Fluorophenyl)-3-(4-(2-(3-(4-methylpiperazino)propyl)amino)pyrimidinyl)-6-pyrazolo-[1,5-a]pyridinylcarboxamide] | – | – | IC50 (p38 kinase; [3]): < 500 nM
22 | OCCCNc1nccc(-c2c(-c3ccc(F)cc3)nn3cc(C(F)(F)F)ccc23)n1 [Example 72, 3-(4-[2-(4-Fluorophenyl)-6-trifluoromethylpyrazolo[1,5-a]pyridin-3-yl]-2-pyrimidinylamino)-1-propanol] | – | – | IC50 (p38 kinase; [3]): < 500 nM
23 | Nc1nccc(-c2c(-c3ccc(F)cc3)nn3cc(C(F)(F)F)ccc23)n1 [Example 65, 4-[2-(4-Fluorophenyl)-6-trifluoromethylpyrazolo[1,5-a]pyridin-3-yl]-2-pyrimidinamine] | – | – | IC50 (p38 kinase; [3]): < 500 nM
24 | CCN(CC)CCNc1nccc(-c2c(-c3cccc(Cl)c3)nn3cc(C(F)(F)F)ccc23)n1 [Example 96, N-{4-[2-(3-chlorophenyl)-6-(trifluoromethyl)pyrazolo[1,5-a]pyridin-3-yl]pyrimidin-2-yl}-N-[2-(diethylamino)ethyl]amine] | 100 to 1000 nM | – | –
